# Measured values as given in paper PMC10464555 (Journal of Enzyme Inhibition and Medicinal Chemistry, 2023).
# Target: T1, sEH enzyme (Homo sapiens, UniProt P34913)
# T1 sequence (P34913 1-555): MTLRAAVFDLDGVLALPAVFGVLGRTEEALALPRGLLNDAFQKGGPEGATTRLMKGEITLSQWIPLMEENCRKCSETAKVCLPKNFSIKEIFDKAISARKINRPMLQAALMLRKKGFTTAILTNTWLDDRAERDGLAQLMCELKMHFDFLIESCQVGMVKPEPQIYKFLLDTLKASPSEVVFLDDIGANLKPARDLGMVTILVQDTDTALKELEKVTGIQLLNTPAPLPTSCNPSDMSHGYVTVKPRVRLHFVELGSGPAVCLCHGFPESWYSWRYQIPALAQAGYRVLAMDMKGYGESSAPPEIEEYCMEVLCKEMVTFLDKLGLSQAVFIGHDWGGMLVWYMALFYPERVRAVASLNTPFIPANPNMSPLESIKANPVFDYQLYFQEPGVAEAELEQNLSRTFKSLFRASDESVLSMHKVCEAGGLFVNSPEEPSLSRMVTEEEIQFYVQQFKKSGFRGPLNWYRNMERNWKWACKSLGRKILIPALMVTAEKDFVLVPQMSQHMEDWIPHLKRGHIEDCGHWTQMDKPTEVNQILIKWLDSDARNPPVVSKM
# Assay: sEH enzyme kinetics
# Assay type: biochemical
# Conditions: for Ki: Ki (μM), Dixon plots; for Inhibition type: Lineweaver–Burk plots
smiles,measurement,value
"O=C(CCCCCCCCc1ccc(O)cc1)c1c(O)cccc1O [Compound 19, malabaricone B]",Ki,20.9 µM
same,Inhibition type,Competitive
"O=C(CCCCCCCCc1ccc(O)c(O)c1)c1c(O)cccc1O [Compound 20, malabaricone C]",Ki,11.1 µM
same,Inhibition type,Competitive
